Experimental data reported in patent publication US20180353568A1 (priority 2015, published 2018).
Entries after “also recorded” stand apart in the source; their conditions may differ.

Tests used:
[1] = system: HIV-luc/Zaire EBOV-GP2014 pseudotype virus; assay type: cell-based, Ebola virus
[2] = system: envelope G protein of vesicular stomatitis virus, VSV-G (HIV-luc/VSV-G pseudotype virus); assay type: cell-based
[3] = system: HIV-luc/Zaire EBOV-GP2014 pseudotype virus; assay type: cell-based, Ebola virus; remark: listed apart in the source
[4] = system: envelope protein GP of Ebola virus (HIV-luc/EBOV-GP pseudotype virus); assay type: cell-based
[5] = system: HIV-luc/Zaire EBOV-GP2014 pseudotype virus; assay type: cell-based, Ebola virus; remark: listed apart in the source
[6] = system: HIV-luc/Zaire EBOV-GP2014 pseudotype virus; assay type: cell-based, Ebola virus; remark: listed apart in the source

Q: With teicoplanin as the substance, how does the “cytotoxicity in 293T cells” value (293T cells) read?
A: non-cytotoxic

Q: What about the “toxicity (FIG. 3, CC50 test)” value (293T cells) of the same substance?
A: low

Q: What about the “inhibitory effect on virus in Hela cells” value [1] of the same substance?
A: good inhibitory effect

Q: What about the “inhibitory effect on the envelope G protein of vesicular stomatitis virus, VSV-G” value [2] of the same substance?
A: no inhibitory effect

Q: What about the “inhibitory effect on virus in A549 cells” value [3] of the same substance?
A: good inhibitory effect

Q: What about the “inhibitory effect on the envelope protein of Ebola virus, EBOV-GP (entry)” value [4] of the same substance?
A: can inhibit the entry of Ebola virus; also recorded: good inhibitory effect

Q: And the IC50 ([4]; read-out: IC50 of teicoplanin (inhibition of Ebola pseudovirus infecting 293T cells))?
A: 200 nM

Q: What about the “inhibitory effect on virus in HUVECs” value [5] of the same substance?
A: good inhibitory effect

Q: And the “inhibitory effect on virus in THP-1 cells” value [6]?
A: good inhibitory effect
